The source of these data is patent publication US6699901B1, “Dicarboxylato diammine platinum derivatives and compositions comprising them as anti-tumor agents” (priority 2000, dated 2004).

In the data set the test system is hepatic cancer H22 cells. The experiment in a line: Carcinostatic rates on hepatic cancer H22 in Kunming mice. The format is in vivo. To be noted: for Tumor Weight: daily for seven days; for Mice After Injection: 10 mice before injection. The protocol: a). Divided 40 Kunming mice with weight ranging from 21 to 22 g, half male and half female randomly into 4 groups. Every group had 10 mice. Inoculated every mouse with 0.2 ml hepatic cancer H22 cells subcutaneously in right abdomen. […] The control group was given normal saline IP. The mice were put to death the day after withdrawal. Weighed the bodies and the tumor, calculated the carcinostatic rates.

As to “double 1,1-cyclobutane dicarboxylic acid diaminoplatin complex [bicycloplatin]”, the “Body Weight After Injection” value came out at 27.9 g (H22, 10 mg/kg); 24.4 g (H22, 20 mg/kg); 22.4 g (H22, 30 mg/kg). Further, the “Response rate” value was 40.4% (H22, 10 mg/kg); 67.0% (H22, 20 mg/kg); 78.6% (H22, 30 mg/kg). Also, the “Tumor Weight” value worked out at 0.95 ± 0.29 g (H22, 10 mg/kg abdominally); 0.53 ± 0.26 g (H22, 20 mg/kg abdominally); 0.34 ± 0.09 g (H22, 30 mg/kg abdominally). Also, the “Mice After Injection” value stood at 10 (H22, 10 mg/kg); 10 (H22, 20 mg/kg); 10 (H22, 30 mg/kg). Further, the mortality result (H22, 10-30 mg/kg) is “no mortality occurs”. The “weight gain of the treated groups” value (H22, 10-30 mg/kg, versus control group) is on record as “less than that of the control group”.
